Measurements as given in patent publication US20240390521A1, “CHIMERIC MODIFIED ION CHANNELS AND USES THEREOF FOR TREATMENT OF TRIGEMINAL NERVE DISORDERS” (Kriya Therapeutics, Inc., priority 2023, published 2024).
Counter-ions that a name gives are not always drawn.

Columns and labels:
[1] = target: α7^L131G, Q139L, Y217F-GlyR LGIC (Homo sapiens, UniProt P36544, L131G/Q139L/Y217F); experiment: Agonist potency at the modified chimeric LGIC; type: cell-based
[2] = 28-day study: varenicline PK in blood samples; type: in vivo, rat
Protocol: A 28-day biodistribution/toxicity study was conducted.

rat IoN-CCI model = experiment: Rat IoN-CCI model of trigeminal neuralgia, von Frey filament escape threshold (ET); type: in vivo
Protocol: Infraorbital nerve (IoN) chronic constriction injury (IoN-CCI) is an art-recognized animal model of trigeminal neuralgia (Vos et al. J Neurosci 14 (5 Pt 1): 2708-2723, 1994).
Mechanical allodynia was measured using a von Frey filament assay to define the escape threshold [ET]) in the rat IoN-CCI model. The total study duration was 6 months with two intermittent time points (2-and 4-months). Behavioral efficacy, as assessed by ET, and transgene expression in the trigeminal ganglion were evaluated.
Twelve groups of male and female adult rats were treated. AAV5-m-α7-GlyR LGIC vectors were injected percutaneously into the left trigeminal ganglion whereas the right untreated trigeminal ganglion served as control.
Naïve animals (no IoN-CCI, no AAV5-m-α7-GlyR LGIC or varenicline dosing) served as intact controls for behavioral and molecular analysis.
Varenicline tartrate was administered orally. A tartrate correction factor of 1.71 was applied in dose formulations.
Efficacy presented below is a combination of all 3 time points (2, 4, and 6 months) for each treatment group.

CNS function = details: rat, in vivo
[3] = system: m-α7-GlyR LGICs expressed in mouse cortical neurons; experiment: Evoked neuronal activity in mouse cortical neurons expressing m-α7-GlyR LGICs; type: cell-based; details: data not shown
[4] = system: m-α7-GlyR ion channels in cultured hippocampal neurons; experiment: Sustained varenicline exposure of cultured hippocampal neurons expressing m-α7-GlyR; type: cell-based; details: varenicline 15 nM for 18 days; data not shown
[5] = Varenicline concentrations in blood, PFC and CSF after single oral administration; type: in vivo, rat; details: male rats
m-α7-GlyR LGIC = target: T1, m-α7-GlyR LGIC (Homo sapiens, UniProt P36544, L131G/Q139L/Y217F); experiment: Constitutive activity of m-α7-GlyR LGIC without varenicline; type: in vivo, rodents; details: absence of varenicline
T1 construct: expressed in transfected cells; host or cells: rodent neurons expressing the transgene (mouse cortical neurons, cultured hippocampal neurons; rat trigeminal ganglion after AAV5 injection)

Molecule: C[N+](C)(C)CCO [choline]
- EC50 [1]: > 50 µM

Molecule: c1cnc2cc3c(cc2n1)[C@@H]1CNC[C@H]3C1 [varenicline, 6,10-Methano-6H-pyrazino[2,3-h][3]benzazepine, 7,8,9,10-tetrahydro-5,8,14-triazatetracyclo[10.3.1.02,11.04,9]hexadeca-2,4,6,8,10-pentaene tartrate salt]
- decrease of varenicline level ([2]; 6 hours post-dose vs 2 hours, 1 mg/kg p.o.): approximately 50%
- concentration at 2 h ([2]; rat, blood, po, 2 hours post-dose, 1 mg/kg p.o., average across groups): ~480 nM
- concentration at 24 h ([2]; rat, blood, po, 24 hours post final dose, 1 mg/kg p.o. daily, average): 4.4 nM
- sex differences in plasma varenicline levels ([2]; rat, in vivo): no sex differences in plasma varenicline levels
- improvement of pain sensitivity, single agent alone (rat IoN-CCI model; Group 6 varenicline alone, Group 7 AAV5-m-α7-GlyR LGIC (6×10^8 vg) alone, tartrate salt): neither varenicline alone nor AAV5-m-α7-GlyR LGIC alone (Groups 6 and 7, respectively) demonstrated improved pain sensitivity
- varenicline levels at the time of sample collection (rat IoN-CCI model; all animals receiving treatment): within predictable levels
- treatment related changes in the neurological assessments (CNS function): no AAV5-m-α7-GlyR LGIC, varenicline or AAV5-m-α7-GlyR LGIC+varenicline related changes in the neurological assessments
- effect of activation by varenicline on evoked neuronal activity [3]: reversible inhibition of evoked neuronal activity
- tachyphylaxis or down regulation of expressed m-α7-GlyR LGICs [4]: did not result in tachyphylaxis or down regulation
- time of peak varenicline concentration in CSF [5]: 60 min
- time of peak varenicline concentration in PFC [5]: 90 min
- time of peak varenicline concentration in blood [5]: 60 min

B1: m-α7-GlyR LGIC: human chimeric ion channel: modified nicotinic α7 receptor binding domain and glycine channel ion pore domain; SEQ ID NO: 1 (protein)
chain: MRCSPGGVWLALAASLLHVSLQGEFQRKLYKELVKNYNPLERPVANDSQPLTVYFSLSLLQIMDVDEKNQVLTTNIWLQMSWTDHYLQWNVSEYPGVKTVRFPDGQIWKPDILLYNSADERFDATFHTNVGVNSSGHCLYLPPGIFKSSCYIDVRWFPFDVQHCKLKFGSWSYGGWSLDLQMQEADISGYIPNGEWDLVGIPGKRSERFYECCKEPFPDVTFTVTMRRRMGYYLIQMYIPSLLIVILSWISFWINMDAAPARVGLGITTVLTMTTQSSGSRASLPKVSYVKAIDIWMAVCLLFVFSALLEYAAVNFVSRQHKELLRFRRKRRHHKEDEAGEGRFNFSAYGMGPACLQAKDGISVKGANNSNTTNPPPAPSKSPEEMRKLFIQRAKKIDKISRIGFPMAFLIFNMFYWIIYKIVRREDVHNQ
- constitutive activity (m-α7-GlyR LGIC): no constitutive activity
